How the values were obtained:
Assay type in all cases: cell-based
CDK9 = target: T1, CDK9 (Homo sapiens, UniProt P50750); assay: HiBit Assay Protocol for CDK9 (HIBIT protein quantification, degradation); details: 6 h, HEK293-CDK9-Hibit cells, compound treatment for 6 hours; read-out: CDK9 HIBIT Protein Quantification Maximum
T1 construct: host or cells: HEK293-CDK9-Hibit
Outline: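 Degradation read-out: luminescence after lytic HiBiT/LgBiT detection in HEK293-CDK9-HiBiT cells exposed 6 h to 10-point, 3-fold compound dilutions. Signal scaled between 0.1% DMSO-treated cells and medium alone; DC50 fitted from the curve.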

CDK2 = target: T2, CDK2 (Homo sapiens, UniProt P24941); assay: HiBit Assay Protocol for CDK2 (HIBIT protein quantification, degradation); details: HEK293-CDK2-Hibit cells, compound treatment for 6 hours; for DC50: ABS DC50
T2 construct: host or cells: HEK293-CDK2-Hibit
Outline: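 DC50 comes from a fitted curve of remaining CDK2-HiBiT luminescence, referenced to DMSO-treated cells and medium-only wells. HEK293-CDK2-HiBiT cells, plated the previous night, received compounds in a 10-point, 3-fold series for 6 h before lysis with LgBiT-containing Nano-Glo HiBiT reagent.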

CCNE1 = target: T3, CCNE1 (Homo sapiens, UniProt P24864); assay: HiBit Assay Protocol for CCNE1 (HIBIT protein quantification, degradation); details: HEK293-CCNE1-Hibit cells, compound treatment for 6 hours
T3 construct: host or cells: HEK293-CCNE1-Hibit
T3 sequence (P24864 whole entry): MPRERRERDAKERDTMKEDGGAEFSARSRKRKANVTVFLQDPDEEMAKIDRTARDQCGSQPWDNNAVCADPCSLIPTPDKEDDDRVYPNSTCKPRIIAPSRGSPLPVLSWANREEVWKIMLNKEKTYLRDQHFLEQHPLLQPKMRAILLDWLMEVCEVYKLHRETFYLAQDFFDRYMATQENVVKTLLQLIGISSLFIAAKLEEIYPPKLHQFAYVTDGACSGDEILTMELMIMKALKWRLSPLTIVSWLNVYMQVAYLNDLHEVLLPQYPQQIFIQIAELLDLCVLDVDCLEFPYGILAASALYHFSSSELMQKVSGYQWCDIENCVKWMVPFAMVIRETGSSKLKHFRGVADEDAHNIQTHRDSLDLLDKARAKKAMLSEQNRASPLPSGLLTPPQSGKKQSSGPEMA
Outline: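 Degradation readout: lytic Nano-Glo HiBiT luminescence after 6 h exposure of HEK293-CCNE1-HiBiT cells to 10-point, 3-fold serial dilutions. Signal was scaled between medium-only and DMSO-treated wells, and DC50 came from curve fits.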

T1 sequence (P50750 whole entry): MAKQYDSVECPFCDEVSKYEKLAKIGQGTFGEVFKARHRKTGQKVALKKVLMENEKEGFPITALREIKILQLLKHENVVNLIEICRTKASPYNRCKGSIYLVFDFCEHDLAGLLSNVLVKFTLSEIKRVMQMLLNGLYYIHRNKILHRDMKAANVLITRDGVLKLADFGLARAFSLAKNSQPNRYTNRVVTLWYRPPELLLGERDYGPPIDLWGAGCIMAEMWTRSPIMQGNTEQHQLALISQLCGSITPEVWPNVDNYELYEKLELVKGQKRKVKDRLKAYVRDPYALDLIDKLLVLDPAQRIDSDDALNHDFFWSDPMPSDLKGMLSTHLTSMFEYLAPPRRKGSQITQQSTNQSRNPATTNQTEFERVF

| Dmax (CDK9) [%] | CDK2 HIBIT Protein Quantification Maximum (CDK2) [%] | CCNE1 HIBIT Protein Quantification Maximum (CCNE1) [%] | DC50 (CDK2) [nM] | Structure (SMILES) |
| --- | --- | --- | --- | --- |
| 28 | 18 | 17 | – | CC1CCCC1N1C(=O)C2(CC2)c2cnc(NC3CCN(S(=O)(=O)N4CCC5(CCN(C(=O)CCc6ccc7c(c6)n(C)c(=O)n7C6CCC(=O)NC6=O)C5)C4)CC3)nc21 (centres unmarked) [Compound 60] |
| 23 | 60 | 29 | 3 | CC1CCCC1N1C(=O)C2(CC2)c2cnc(NC3CCN(S(=O)(=O)N4CC(N(C)C(=O)CCCc5ccc6c(c5)n(C)c(=O)n6C5CCC(=O)NC5=O)C4)CC3)nc21 (centres unmarked) [Compound 61] |
| 14 | 15 | 2 | – | CC1CCCC1N1C(=O)C2(CC2)c2cnc(NC3CCN(S(=O)(=O)N4CCCC45CCN(C(=O)CCCc4ccc6c(c4)n(C)c(=O)n6C4CCC(=O)NC4=O)C5)CC3)nc21 (centres unmarked) [Compound 63] |
| 17 | 29 | 18 | – | CC1CCCC1N1C(=O)C2(CC2)c2cnc(NC3CCN(S(=O)(=O)N4CCC5(CCCN5C(=O)CCCc5ccc6c(c5)n(C)c(=O)n6C5CCC(=O)NC5=O)C4)CC3)nc21 (centres unmarked) [Compound 64] |
| 9 | 30 | 4 | – | CC1CCCC1N1C(=O)C2(CC2)c2cnc(NC3CCN(S(=O)(=O)N4CC5(CCCCN5C(=O)CCCc5ccc6c(c5)n(C)c(=O)n6C5CCC(=O)NC5=O)C4)CC3)nc21 (centres unmarked) [Compound 65] |
| 8 | 39 | 14 | – | CC1CCCC1N1C(=O)C2(CC2)c2cnc(NC3CCN(S(=O)(=O)N4CC5(CCCN(C(=O)CCCc6ccc7c(c6)n(C)c(=O)n7C6CCC(=O)NC6=O)C5)C4)CC3)nc21 (centres unmarked) [Compound 66] |
| 6 | 38 | 9 | – | CC1CCCC1N1C(=O)C2(CC2)c2cnc(NC3CCN(S(=O)(=O)N4CC5(CCN(C(=O)CCCc6ccc7c(c6)n(C)c(=O)n7C6CCC(=O)NC6=O)CC5)C4)CC3)nc21 (centres unmarked) [Compound 68] |
| 8 | 13 | 8 | – | CC1CCCC1N1C(=O)C2(CC2)c2cnc(NC3CCN(S(=O)(=O)N4CC5C4CCN5C(=O)CCCc4ccc5c(c4)n(C)c(=O)n5C4CCC(=O)NC4=O)CC3)nc21 (centres unmarked) [Compound 69] |
| 15 | −3 | 6 | – | CC1CCCC1N1C(=O)C2(CC2)c2cnc(NC3CCN(S(=O)(=O)N4CC5CN(C(=O)CCCc6ccc7c(c6)n(C)c(=O)n7C6CCC(=O)NC6=O)CC54)CC3)nc21 (centres unmarked) [Compound 70] |
| 42 | 25 | 8 | – | CC1CCCC1N1C(=O)C2(CC2)c2cnc(NC3CCN(S(=O)(=O)N4CCCN(C(=O)CCCc5ccc6c(c5)n(C)c(=O)n6C5CCC(=O)NC5=O)CC4)CC3)nc21 (centres unmarked) [Compound 72] |
| 8 | 19 | 29 | – | CC1CCCC1N1C(=O)C2(CC2)c2cnc(NC3CCN(S(=O)(=O)N4CCCC45CCN(C(=O)CCCCCc4ccc6c(c4)n(C)c(=O)n6C4CCC(=O)NC4=O)C5)CC3)nc21 (centres unmarked) [Compound 74] |
| 9 | 29 | 20 | – | CC1CCCC1N1C(=O)C2(CC2)c2cnc(NC3CCN(S(=O)(=O)N4CC5(CCCCN5C(=O)CCCCCc5ccc6c(c5)n(C)c(=O)n6C5CCC(=O)NC5=O)C4)CC3)nc21 (centres unmarked) [Compound 76] |
| 40 | 46 | 25 | – | CC1CCCC1N1C(=O)C2(CC2)c2cnc(NC3CCN(S(=O)(=O)N4CCN(C(=O)CCCCCc5ccc6c(c5)n(C)c(=O)n6C5CCC(=O)NC5=O)CC4)CC3)nc21 (centres unmarked) [Compound 77] |
| 23 | 29 | 17 | – | CC1CCCC1N1C(=O)C2(CC2)c2cnc(NC3CCN(S(=O)(=O)N4CC5C4CCN5C(=O)CCCCCc4ccc5c(c4)n(C)c(=O)n5C4CCC(=O)NC4=O)CC3)nc21 (centres unmarked) [Compound 78] |
| 21 | 6 | 16 | – | CC1CCCC1N1C(=O)C2(CC2)c2cnc(NC3CCN(S(=O)(=O)N4CC5CN(C(=O)CCCCCc6ccc7c(c6)n(C)c(=O)n7C6CCC(=O)NC6=O)CC54)CC3)nc21 (centres unmarked) [Compound 79] |
| 8 | 24 | 29 | – | CC1CCCC1N1C(=O)C2(CC2)c2cnc(NC3CCN(S(=O)(=O)N4CCCN(C(=O)CCCCCc5ccc6c(c5)n(C)c(=O)n6C5CCC(=O)NC5=O)CC4)CC3)nc21 (centres unmarked) [Compound 80] |
| 14 | 50 | 15 | 8 | CC1CCCC1N1C(=O)C2(CC2)c2cnc(NC3CCN(S(=O)(=O)C4CCN(C(=O)CCCCCc5ccc6c(c5)n(C)c(=O)n6C5CCC(=O)NC5=O)C4)CC3)nc21 (centres unmarked) [Compound 81] |
| 11 | 26 | 43 | – | CC1CCCC1N1C(=O)C2(CC2)c2cnc(NC3CCN(S(=O)(=O)C4CCCN(C(=O)CCCCCc5ccc6c(c5)n(C)c(=O)n6C5CCC(=O)NC5=O)C4)CC3)nc21 (centres unmarked) [Compound 82] |
| 16 | 29 | 13 | – | CC1CCCC1N1C(=O)C2(CC2)c2cnc(NC3CCN(S(=O)(=O)N4CC5(CCN(C(=O)CCCCCCCc6ccc7c(c6)n(C)c(=O)n7C6CCC(=O)NC6=O)CC5)C4)CC3)nc21 (centres unmarked) [Compound 83] |
| 30 | 53 | 47 | 21 | CC1CCCC1N1C(=O)C2(CC2)c2cnc(NC3CCN(S(=O)(=O)C4CCN(C(=O)CCCCCCCc5ccc6c(c5)n(C)c(=O)n6C5CCC(=O)NC5=O)C4)CC3)nc21 (centres unmarked) [Compound 84] |
| 14 | 17 | 41 | – | CC1CCCC1N1C(=O)C2(CC2)c2cnc(NC3CCN(S(=O)(=O)C4CCCN(C(=O)CCCCCCCc5ccc6c(c5)n(C)c(=O)n6C5CCC(=O)NC5=O)C4)CC3)nc21 (centres unmarked) [Compound 85] |
| 34 | 65 | 37 | 16 | CC1CCCC1N1C(=O)C2(CC2)c2cnc(NC3CCN(S(=O)(=O)N4CC(N(C)C(=O)CCCCCCCCCc5ccc6c(c5)n(C)c(=O)n6C5CCC(=O)NC5=O)C4)CC3)nc21 (centres unmarked) [Compound 86] |
| 13 | 44 | 11 | – | CC1CCCC1N1C(=O)C2(CC2)c2cnc(NC3CCN(S(=O)(=O)N4CC5(CCCN(C(=O)CCCCCCCCCc6ccc7c(c6)n(C)c(=O)n7C6CCC(=O)NC6=O)C5)C4)CC3)nc21 (centres unmarked) [Compound 87] |
| 24 | 55 | 21 | 7 | CC1CCCC1N1C(=O)C2(CC2)c2cnc(NC3CCN(S(=O)(=O)N4CC5(CCN(C(=O)CCCCCCCCCc6ccc7c(c6)n(C)c(=O)n7C6CCC(=O)NC6=O)CC5)C4)CC3)nc21 (centres unmarked) [Compound 88] |

— patent US20260070917A1, “CYCLIN DEPENDENT KINASE DEGRADERS AND METHODS OF USE THEREOF” (Differentiated Therapeutics Inc, priority 2023, published 2026)
